Laboratory results published in patent USRE48461E1, “Modulation of androgen receptor expression” (Ionis Pharmaceuticals, Inc., priority 2012, dated 2021).
Oligonucleotides are written 5' to 3', each unit as a sugar letter and its base; * is a phosphorothioate linkage, no mark a phosphodiester; rarer units and linkages stand in square brackets, end groups in braces. Plain capitals give the bases only. e = 2'-O-(2-methoxyethyl) (MOE); k = constrained ethyl (cEt); [5mC] = 5-methylcytosine; d = 2'-deoxy (DNA)

Columns and labels:
AR mRNA [1] = assay: Antisense inhibition of human AR in HuVEC cells, single concentration (electroporation, qRT-PCR RTS3559); assay type: cell-based
Summary of the method: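 HuVEC cells electroporated with antisense oligonucleotides at a single concentration. AR mRNA quantified by qRT-PCR using human primer-probe set RTS3559 and normalised to total RNA content by RIBOGREEN.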

AR mRNA [2] = assay: Dose-dependent antisense inhibition of human AR in HuVEC cells (electroporation, qRT-PCR RTS3559, IC50); assay type: cell-based
Summary of the method: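 HuVEC cells dosed with antisense oligonucleotides by electroporation and treated approximately 16 hours. AR mRNA quantified by real-time qPCR with primer probe set RTS3559 and normalised to total RNA by RIBOGREEN; IC50 from dose-response.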

[3] = Table 33, 46.9 nM, HuVEC, electroporation, approximately 16 hours
[4] = Table 33, 187.5 nM, HuVEC, electroporation, approximately 16 hours
[5] = Table 33, 750.0 nM, HuVEC, electroporation, approximately 16 hours
[6] = Table 33, 3000.0 nM, HuVEC, electroporation, approximately 16 hours
[7] = Table 33, HuVEC, electroporation, approximately 16 hours
[8] = Table 30, 46.9 nM, HuVEC, electroporation, approximately 16 hours
[9] = Table 30, 187.5 nM, HuVEC, electroporation, approximately 16 hours
[10] = Table 30, 750.0 nM, HuVEC, electroporation, approximately 16 hours
[11] = Table 30, 3000.0 nM, HuVEC, electroporation, approximately 16 hours
[12] = Table 30, HuVEC, electroporation, approximately 16 hours
[13] = 500 nM ASO, electroporation, ~24 h, Table 1
[14] = 166.7 nM, HuVEC, ~16 h, Table 4
[15] = 500.0 nM, HuVEC, ~16 h, Table 4
[16] = 1500.0 nM, HuVEC, ~16 h, Table 4
[17] = 31.25 nM, HuVEC, ~16 h, Table 14
[18] = 62.5 nM, HuVEC, ~16 h, Table 14
[19] = 125.0 nM, HuVEC, ~16 h, Table 14
[20] = 500.0 nM, HuVEC, ~16 h, Table 14
[21] = 1000.0 nM, HuVEC, ~16 h, Table 14
[22] = Table 29, 46.9 nM, HuVEC, electroporation, approximately 16 hours
[23] = Table 29, 187.5 nM, HuVEC, electroporation, approximately 16 hours
[24] = Table 29, 750.0 nM, HuVEC, electroporation, approximately 16 hours
[25] = Table 29, 3000.0 nM, HuVEC, electroporation, approximately 16 hours
[26] = Table 29, HuVEC, electroporation, approximately 16 hours

## 583920 (kT*kA*kG*dT*dA*dG*dT*d[5mC]*dG*d[5mC]*dG*dA*d[5mC]*kT*k[5mC]*kT; antisense) [compound 583920]
AR mRNA [1]; Table 21, 500 nM oligonucleotide, electroporation, approximately 24 hours, relative to untreated control
  % inhibition: 42%
AR mRNA [2]; [3]
  percent inhibition of AR, 46.9 nM: 11%
AR mRNA [2]; [4]
  percent inhibition of AR, 187.5 nM: 16%
AR mRNA [2]; [5]
  percent inhibition of AR, 750.0 nM: 50%
AR mRNA [2]; [6]
  percent inhibition of AR, 3000.0 nM: 72%
AR mRNA [2]; [7]
  IC50: 760 nM

## 583747 (antisense kG*k[5mC]*kT*dG*d[5mC]*dG*d[5mC]*dT*d[5mC]*dG*d[5mC]*dG*dG*k[5mC]*k[5mC]*kT) [compound 583747]
AR mRNA [1]; 500 nM ASO, ~24 h, Table 18
  % inhibition: 35%
AR mRNA [2]; Table 31, 46.9 nM, HuVEC, electroporation, approximately 16 hours
  percent inhibition of AR, 46.9 nM: 13%
AR mRNA [2]; Table 31, 187.5 nM, HuVEC, electroporation, approximately 16 hours
  percent inhibition of AR, 187.5 nM: 38%
AR mRNA [2]; Table 31, 750.0 nM, HuVEC, electroporation, approximately 16 hours
  percent inhibition of AR, 750.0 nM: 50%
AR mRNA [2]; Table 31, 3000.0 nM, HuVEC, electroporation, approximately 16 hours
  percent inhibition of AR, 3000.0 nM: 69%
AR mRNA [2]; Table 31, HuVEC, electroporation, approximately 16 hours
  IC50: 640 nM

## 583687 (antisense kG*kG*kT*dA*dG*dT*d[5mC]*dG*d[5mC]*dT*dG*d[5mC]*dA*kG*k[5mC]*kT) [compound 583687]
AR mRNA [1]; 500 nM ASO, ~24 h, Table 18
  % inhibition: 41%
AR mRNA [2]; [8]
  percent inhibition of AR, 46.9 nM: 34%
AR mRNA [2]; [9]
  percent inhibition of AR, 187.5 nM: 67%
AR mRNA [2]; [10]
  percent inhibition of AR, 750.0 nM: 83%
AR mRNA [2]; [11]
  percent inhibition of AR, 3000.0 nM: 81%
AR mRNA [2]; [12]
  IC50: 80 nM

## 584157 (kT*kT*kG*dA*dT*dG*dG*dA*dA*dT*dG*d[5mC]*dT*kG*kA*kT; antisense) [compound 584157]
AR mRNA [1]; Table 24, 1,000 nM oligonucleotide, electroporation, approximately 24 hours, relative to untreated control
  % inhibition: 69%
AR mRNA [2]; Table 36, 46.9 nM, HuVEC, electroporation, approximately 16 hours
  percent inhibition of AR, 46.9 nM: 6%
AR mRNA [2]; Table 36, 187.5 nM, HuVEC, electroporation, approximately 16 hours
  percent inhibition of AR, 187.5 nM: 6%
AR mRNA [2]; Table 36, 750.0 nM, HuVEC, electroporation, approximately 16 hours
  percent inhibition of AR, 750.0 nM: 52%
AR mRNA [2]; Table 36, 3000.0 nM, HuVEC, electroporation, approximately 16 hours
  percent inhibition of AR, 3000.0 nM: 82%
AR mRNA [2]; Table 36, HuVEC, electroporation, approximately 16 hours
  IC50: 590 nM

## 549338 (kG*kG*k[5mC]*dT*dG*dT*dG*dA*dT*dG*dA*dT*dG*k[5mC]*kG*kG; antisense) [compound 549338]
AR mRNA [1]; [13]
  % inhibition: 83%
AR mRNA [2]; 55.6 nM, HuVEC, ~16 h, Table 4
  percent inhibition of AR: 32%
AR mRNA [2]; [14]
  percent inhibition of AR: 47%
AR mRNA [2]; [15]
  percent inhibition of AR: 67%
AR mRNA [2]; [16]
  percent inhibition of AR: 78%
AR mRNA [2]; HuVEC, ~16 h, Table 4
  IC50: 154 nM

## 549332 (kG*k[5mC]*kG*d[5mC]*dT*d[5mC]*dT*dG*dA*d[5mC]*dA*dG*d[5mC]*k[5mC]*kT*k[5mC]; antisense) [compound 549332]
AR mRNA [1]; [13]
  % inhibition: 84%
AR mRNA [2]; 55.6 nM, HuVEC, ~16 h, Table 4
  percent inhibition of AR: 35%
AR mRNA [2]; [14]
  percent inhibition of AR: 57%
AR mRNA [2]; [15]
  percent inhibition of AR: 79%
AR mRNA [2]; [16]
  percent inhibition of AR: 79%
AR mRNA [2]; HuVEC, ~16 h, Table 4
  IC50: 104 nM

## 569215 (antisense kT*kG*kG*dT*dT*dG*dA*dT*dT*dT*dA*dA*kT*kG*kG*eT) [compound 569215]
AR mRNA [1]; 1,000 nM ASO, ~24 h, Table 13
  % inhibition: 59%
AR mRNA [2]; [17]
  percent inhibition of AR: 12%
AR mRNA [2]; [18]
  percent inhibition of AR: 2%
AR mRNA [2]; [19]
  percent inhibition of AR: 26%
AR mRNA [2]; [20]
  percent inhibition of AR: 71%
AR mRNA [2]; [21]
  percent inhibition of AR: 90%
AR mRNA [2]; HuVEC, ~16 h, Table 14
  IC50: 234 nM

## 583853 (kT*kG*k[5mC]*dA*dT*dT*d[5mC]*dG*dG*d[5mC]*d[5mC]*dA*dA*kT*kG*kG; antisense) [compound 583853]
AR mRNA [1]; Table 20, 500 nM oligonucleotide, electroporation, approximately 24 hours, relative to untreated control
  % inhibition: 33%
AR mRNA [2]; [3]
  percent inhibition of AR, 46.9 nM: 24%
AR mRNA [2]; [4]
  percent inhibition of AR, 187.5 nM: 51%
AR mRNA [2]; [5]
  percent inhibition of AR, 750.0 nM: 70%
AR mRNA [2]; [6]
  percent inhibition of AR, 3000.0 nM: 80%
AR mRNA [2]; [7]
  IC50: 210 nM

## 569220 (antisense eA*kT*kG*kG*dT*dT*dG*dA*dT*dT*dT*dA*kA*kT*kG*eG) [compound 569220]
AR mRNA [1]; 1,000 nM ASO, ~24 h, Table 13
  % inhibition: 58%
AR mRNA [2]; [17]
  percent inhibition of AR: 11%
AR mRNA [2]; [18]
  percent inhibition of AR: 29%
AR mRNA [2]; [19]
  percent inhibition of AR: 34%
AR mRNA [2]; [20]
  percent inhibition of AR: 59%
AR mRNA [2]; [21]
  percent inhibition of AR: 78%
AR mRNA [2]; HuVEC, ~16 h, Table 14
  IC50: 275 nM

## 583567 (antisense kG*k[5mC]*kA*d[5mC]*dT*dT*dT*d[5mC]*d[5mC]*dT*dT*dG*d[5mC]*kT*kT*k[5mC]) [compound 583567]
AR mRNA [1]; 500 nM ASO, ~24 h, Table 16
  % inhibition: 52%
AR mRNA [2]; [22]
  percent inhibition of AR, 46.9 nM: 17%
AR mRNA [2]; [23]
  percent inhibition of AR, 187.5 nM: 34%
AR mRNA [2]; [24]
  percent inhibition of AR, 750.0 nM: 60%
AR mRNA [2]; [25]
  percent inhibition of AR, 3000.0 nM: 79%
AR mRNA [2]; [26]
  IC50: 430 nM

## 583566 (antisense k[5mC]*k[5mC]*kT*dT*dG*d[5mC]*dT*dT*d[5mC]*d[5mC]*dT*d[5mC]*d[5mC]*kG*kA*kG) [compound 583566]
AR mRNA [1]; 500 nM ASO, ~24 h, Table 16
  % inhibition: 47%
AR mRNA [2]; [22]
  percent inhibition of AR, 46.9 nM: 0%
AR mRNA [2]; [23]
  percent inhibition of AR, 187.5 nM: 28%
AR mRNA [2]; [24]
  percent inhibition of AR, 750.0 nM: 50%
AR mRNA [2]; [25]
  percent inhibition of AR, 3000.0 nM: 74%
AR mRNA [2]; [26]
  IC50: 730 nM

## 584069 (k[5mC]*kA*kG*dA*dG*dT*d[5mC]*dA*dT*d[5mC]*d[5mC]*d[5mC]*dT*kG*k[5mC]*kT; antisense) [compound 584069]
AR mRNA [1]; Table 23, 500 nM oligonucleotide, electroporation, approximately 24 hours, relative to untreated control
  % inhibition: 36%
AR mRNA [2]; Table 34, 46.9 nM, HuVEC, electroporation, approximately 16 hours
  percent inhibition of AR, 46.9 nM: 18%
AR mRNA [2]; Table 34, 187.5 nM, HuVEC, electroporation, approximately 16 hours
  percent inhibition of AR, 187.5 nM: 40%
AR mRNA [2]; Table 34, 750.0 nM, HuVEC, electroporation, approximately 16 hours
  percent inhibition of AR, 750.0 nM: 63%
AR mRNA [2]; Table 34, 3000.0 nM, HuVEC, electroporation, approximately 16 hours
  percent inhibition of AR, 3000.0 nM: 82%
AR mRNA [2]; Table 34, HuVEC, electroporation, approximately 16 hours
  IC50: 300 nM

## 586224 (kT*kT*kG*kA*kT*dT*dT*dA*dA*dT*dG*dG*dT*kT*kG*k[5mC]; antisense) [compound 586224]
AR mRNA [1]; 1,000 nM ASO, ~24 h, Table 13
  % inhibition: 90%
AR mRNA [2]; 46.9 nM, HuVEC, ~16 h, Table 15
  percent inhibition of AR: 39%
AR mRNA [2]; 187.5 nM, HuVEC, ~16 h, Table 15
  percent inhibition of AR: 75%
AR mRNA [2]; 750.0 nM, HuVEC, ~16 h, Table 15
  percent inhibition of AR: 93%
AR mRNA [2]; 3000.0 nM, HuVEC, ~16 h, Table 15
  percent inhibition of AR: 98%
AR mRNA [2]; HuVEC cells, electroporation
  IC50: 50 nM
AR mRNA [2]; HuVEC cells, electroporation, 46.9 nM ASO
  inhibition of AR mRNA at 46.9 nM: 39%
AR mRNA [2]; HuVEC cells, electroporation, 187.5 nM ASO
  inhibition of AR mRNA at 187.5 nM: 75%
AR mRNA [2]; HuVEC cells, electroporation, 750.0 nM ASO
  inhibition of AR mRNA at 750.0 nM: 93%
AR mRNA [2]; HuVEC cells, electroporation, 3000.0 nM ASO
  inhibition of AR mRNA at 3000.0 nM: 98%
AR mRNA [2]; HuVEC, ~16 h, Table 15
  IC50: 50 nM

## 583642 (antisense kA*kG*kT*dG*dT*d[5mC]*d[5mC]*dA*d[5mC]*dT*dG*dA*dA*kG*kT*kA) [compound 583642]
AR mRNA [1]; 500 nM ASO, ~24 h, Table 17
  % inhibition: 42%
AR mRNA [2]; [8]
  percent inhibition of AR, 46.9 nM: 18%
AR mRNA [2]; [9]
  percent inhibition of AR, 187.5 nM: 35%
AR mRNA [2]; [10]
  percent inhibition of AR, 750.0 nM: 67%
AR mRNA [2]; [11]
  percent inhibition of AR, 3000.0 nM: 74%
AR mRNA [2]; [12]
  IC50: 460 nM
